Each structure is given as a SMILES string.

The IC50 is the midpoint of a concentration-inhibition curve.

The target of the test is T1, G9a (Homo sapiens, UniProt Q96KQ7).
T1 sequence (Q96KQ7 1-1210): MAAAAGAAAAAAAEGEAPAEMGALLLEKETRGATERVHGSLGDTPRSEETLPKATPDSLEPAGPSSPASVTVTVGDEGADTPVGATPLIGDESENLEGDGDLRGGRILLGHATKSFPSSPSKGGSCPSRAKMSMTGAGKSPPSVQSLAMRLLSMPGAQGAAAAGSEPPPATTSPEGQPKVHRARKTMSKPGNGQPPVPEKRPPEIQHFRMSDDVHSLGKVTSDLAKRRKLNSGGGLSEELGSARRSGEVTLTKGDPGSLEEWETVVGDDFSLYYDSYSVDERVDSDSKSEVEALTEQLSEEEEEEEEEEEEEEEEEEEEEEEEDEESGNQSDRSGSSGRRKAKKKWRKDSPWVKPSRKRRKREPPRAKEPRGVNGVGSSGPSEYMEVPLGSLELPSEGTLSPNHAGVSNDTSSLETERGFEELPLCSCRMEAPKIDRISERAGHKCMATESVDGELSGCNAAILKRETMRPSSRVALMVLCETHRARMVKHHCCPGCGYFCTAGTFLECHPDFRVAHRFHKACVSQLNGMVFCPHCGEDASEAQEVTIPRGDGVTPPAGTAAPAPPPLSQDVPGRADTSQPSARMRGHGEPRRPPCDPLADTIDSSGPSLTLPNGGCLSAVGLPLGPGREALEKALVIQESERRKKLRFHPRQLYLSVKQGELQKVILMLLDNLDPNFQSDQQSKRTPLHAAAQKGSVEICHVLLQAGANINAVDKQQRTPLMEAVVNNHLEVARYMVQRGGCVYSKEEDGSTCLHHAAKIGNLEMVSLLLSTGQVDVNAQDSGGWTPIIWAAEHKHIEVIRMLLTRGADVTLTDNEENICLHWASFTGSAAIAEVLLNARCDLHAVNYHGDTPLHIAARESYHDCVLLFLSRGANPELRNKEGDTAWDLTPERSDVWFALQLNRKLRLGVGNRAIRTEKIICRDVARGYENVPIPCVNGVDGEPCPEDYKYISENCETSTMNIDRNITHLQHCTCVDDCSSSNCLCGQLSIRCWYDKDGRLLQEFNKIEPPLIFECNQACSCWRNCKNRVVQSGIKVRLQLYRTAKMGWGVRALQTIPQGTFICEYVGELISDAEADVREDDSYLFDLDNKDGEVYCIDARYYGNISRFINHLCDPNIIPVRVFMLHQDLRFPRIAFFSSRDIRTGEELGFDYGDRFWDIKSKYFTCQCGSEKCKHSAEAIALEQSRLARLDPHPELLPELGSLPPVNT
Description: G9a AlphaLISA enzymatic activity assay. The test is classed as biochemical. Conditions: negative log of IC50 in molar, 0.15 nM G9a, 15 uM S-adenosyl-methionine, 100 nM biotinylated histone 3 peptide (1-21). The text has this: The G9a AlphaLISA assay was used to detect the methyl modifications of a biotinylated histone H3 peptide by the compounds. These modifications are done by the histone methyl transferase activity of the G9a enzyme. The assay consists of reading a chemiluminescent signal at 615 nm; this signal is generated by a laser excitation at 680 nm that transfers a reactive singlet oxygen between the donor beads and acceptor beads. Donor beads are streptavidin conjugated and bind to the biotin on the peptide. Acceptor beads are conjugated with an antibody that recognizes the specific G9a methyl mark on the peptide. If there is a methyl mark on the peptide, the acceptor beads will bind to the peptide. Upon binding, the acceptor beads will be in close proximity (<200 nm) of the donor beads and when the donor beads are excited, the transfer of the oxygen can occur and a strong signal will be generated. If there is no methyl mark, the interaction between beads will not occur and signal will be at background levels.
For the assay, the following buffer was used to set up reactions: 50 mM Tris-HCl pH9, 50 mM NaCl, 0.01% Tween-20 and 1 mM DTT (added fresh prior to starting the reactions). […] The reaction is incubated at rt for 1 hour and subsequently quenched by the addition of the acceptor beads (anti-H3k9me2 AlphaLISA acceptor beads, PerkinElmer #AL117) at a final concentration of 20 ug/mL. The acceptor beads are incubated for 1 hour. After 1 hour, the donor beads are added at a final concentration of 20 ug/mL (Alpha Streptavidin donor beads, PerkinElmer #6760002). Donor beads are incubated for 0.5 hours. Both donor and acceptor beads are resuspended in AlphaLISA 5X Epigenetics Buffer 1 Kit (PerkinElmer #AL008) prior to addition to the reaction. All manipulations and incubations with the donor and acceptor beads are done in subdued light. Signal is detected in an EnVision plate reader in Alpha mode. See ACS Med Chem Lett. 2014; 5(2):205-9.
Percent inhibition was calculated for each compound dilution and the concentration that produced 50% inhibition was calculated. This value is presented as the pIC50, which is the negative log of the IC50 value in molar.
For orientation: In Alpha technology, singlet oxygen from a donor bead excites a nearby acceptor bead.
Consider `CCOCCNc1c2c(nc3cc(OCCCN(C)CCF)c(OC)cc13)CCC2` [Example 57, N-(2-ethoxyethyl)-6-{3-[(2-fluoroethyl)(methyl)amino]propoxy}-7-methoxy-1H,2H,3H-cyclopenta[b]quinolin-9-amine], for which the IC50 was 1.48 µM. For `CCN(CCCOc1cc2nc3c(c(NC)c2cc1OC)CCC3)CCOC` [Example 58, 6-{3-[ethyl(2-methoxyethyl)amino]propoxy}-7-methoxy-N-methyl-1H,2H,3H-cyclopenta[b]quinolin-9-amine] the value was 2.75 µM. For `CNc1c2c(nc3cc(OCCCN)c(OC)cc13)CCC2` [Example 61, 6-(3-aminopropoxy)-7-methoxy-N-methyl-1H,2H,3H-cyclopenta[b]quinolin-9-amine] the value was 0.537 µM. Turning to `CNc1c2c(nc3cc(OCCCNS(C)(=O)=O)c(OC)cc13)CCC2` [Example 62, N-(3-{[7-methoxy-9-(methylamino)-1H,2H,3H-cyclopenta[b]quinolin-6-yl]oxy}propyl)methanesulfonamide], the IC50 was 0.933 µM. As to `COc1cc2c(NCC3CC3)c3c(nc2cc1OCCOCCN(C)C)CCC3` [Example 63, N-(cyclopropylmethyl)-6-{2-[2-(dimethylamino)ethoxy]ethoxy}-7-methoxy-1H,2H,3H-cyclopenta[b]quinolin-9-amine], half-maximal inhibition (IC50) was put at 0.0182 µM.

The molecule `CNc1c2c(nc3cc(OCCC(C)N4CCCC4)c(OC)cc13)CCC2` (centres unmarked) [Example 64, 7-methoxy-N-methyl-6-[3-(pyrrolidin-1-yl)butoxy]-1H,2H,3H-cyclopenta[b]quinolin-9-amine] showed an IC50 of 0.126 µM.

The molecule `CNc1c2c(nc3cc(OC(C)CCN4CCCC4)c(OC)cc13)CCC2` (centres unmarked) [Example 65, 7-methoxy-N-methyl-6-{[4-(pyrrolidin-1-yl)butan-2-yl]oxy}-1H,2H,3H-cyclopenta[b]quinolin-9-amine] had an IC50 of 0.0724 µM. For `CCN(CC)CCOCCOc1cc2nc3c(c(NC(C)C)c2cc1OC)CCC3` [Example 66, 6-{2-[2-(diethylamino)ethoxy]ethoxy}-7-methoxy-N-(propan-2-yl)-1H,2H,3H-cyclopenta[b]quinolin-9-amine] the value was 0.437 µM; for `COc1cc2c(NCC3CNC3)c3c(nc2cc1OCCCN1CCCC1)CCC3` [Example 67, N-[(azetidin-3-yl)methyl]-7-methoxy-6-[3-(pyrrolidin-1-yl)propoxy]-1H,2H,3H-cyclopenta[b]quinolin-9-amine], 0.00135 µM. The same measure for `COc1cc2c(NCC3CC3)c3c(nc2cc1OCC1(CN2CCCC2)COC1)CCC3` [Example 68, N-(cyclopropylmethyl)-7-methoxy-6-({3-[(pyrrolidin-1-yl)methyl]oxetan-3-yl}methoxy)-1H,2H,3H-cyclopenta[b]quinolin-9-amine]: 1.55 µM; for `CNc1c2c(nc3cc(OCCCN4C5CCCC4CC5)c(OC)cc13)CCC2` [Example 69, 6-(3-{8-azabicyclo[3.2.1]octan-8-yl}propoxy)-7-methoxy-N-methyl-1H,2H,3H-cyclopenta[b]quinolin-9-amine]: 2.69 µM; for `COc1cc2c(NC3CCN(C(C)C)CC3)c3c(nc2cc1OCCCN(C)C)CCC3` [Example 70, N-{6-[3-(dimethylamino)propoxy]-7-methoxy-1H,2H,3H-cyclopenta[b]quinolin-9-yl}-1-(propan-2-yl)piperidin-4-amine]: 0.0049 µM. For `CNc1c2c(nc3cc(OCCCN(C)C)c(OC)cc13)CCC2` [Example 71, 6-[3-(dimethylamino)propoxy]-7-methoxy-N-methyl-1H,2H,3H-cyclopenta[b]quinolin-9-amine] the value was 0.0407 µM; for `COc1cc2c(NCC3CC3)c3c(nc2cc1OCCCNS(N)(=O)=O)CCC3` [Example 72, N-[3-({9-[(cyclopropylmethyl)amino]-7-methoxy-1H,2H,3H-cyclopenta[b]quinolin-6-yl}oxy)propyl]aminosulfonamide], 1.95 µM.
